Target: T1, Cdc7 (BEV coexpressed huCDC7/DBF4) (Homo sapiens, UniProt O00311)
T1 construct: made in house; host or cells: baculovirus expression vector (BEV) system
Assay: Cdc7 enzyme inhibition assay ([33P]-ATP, biotinylated peptide substrate, FlashPlate)
Type: biochemical
Procedure: Cdc7 (BEV coexpressed huCDC7/DBF4) is prepared internally. Cdc7 assays are conducted as follows with final concentrations as listed. In 384-well v-bottom polypropylene plates, 6 L compound (2% DMSO), is mixed with 6 µL of Cdc7 (2 μg/mL), and Jerini peptide substrate A-All (biotin-C6linker-TPSDSLIYDDGLS) (2 μM), followed by immediate initiation with 6 L […] (1 μM, 20 mCi/μmol) using a reaction buffer comprising 25 mM HEPES, pH 7.5, 1 mM DTT, 10 mM MgCl2, 100 μM Na3VO4, 0.075 mg/ml Triton X-100. Reactions are quenched after 1 hr by the addition of 90 L stop buffer (50 mM EDTA, 2M NaCl). 85 μL of the stopped reactions are transferred to 384-well streptavidin-coated plates (FlashPlate Plus, Perkin Elmer), incubated 30 minutes at room temperature and washed 3 times with 0.05% Tween-20/PBS using an ELX-405 automated plate washer (BioTek), and counted on a TopCount Scintillation Plate Reader (Packard). IC50 values are determined via non-linear regression fitting of enzyme inhibition data and corresponding Ki values are generated assuming ATP-competitive (equilibrium) inhibition and using the experimentally determined apparent ATP Km of 0.7 μM (as determined using the above assay condition, but varying ATP). Table 1 depicts enzyme inhibition data (Ki) for exemplary compounds. In Table 1, “A” represents a Ki of less than 10 nM, “B” represents a Ki of between 10 nM and 100 nM, and “C” represents a Ki of greater than 100 nM.
Table 2 depicts enzyme inhibition data (Ki) for examples 27-43 using the same assay as example 26. In Table 2, “A” represents a Ki of less than 10 nM, “B” represents a Ki of between 10 nM and 100 nM, and “C” represents a Ki of greater than 100 nM.

[1] = Table 1, Ki from IC50 assuming ATP-competitive inhibition, apparent ATP Km 0.7 μM, 1 μM ATP
[2] = Table 2, same assay as example 26

T1 sequence (O00311 whole entry): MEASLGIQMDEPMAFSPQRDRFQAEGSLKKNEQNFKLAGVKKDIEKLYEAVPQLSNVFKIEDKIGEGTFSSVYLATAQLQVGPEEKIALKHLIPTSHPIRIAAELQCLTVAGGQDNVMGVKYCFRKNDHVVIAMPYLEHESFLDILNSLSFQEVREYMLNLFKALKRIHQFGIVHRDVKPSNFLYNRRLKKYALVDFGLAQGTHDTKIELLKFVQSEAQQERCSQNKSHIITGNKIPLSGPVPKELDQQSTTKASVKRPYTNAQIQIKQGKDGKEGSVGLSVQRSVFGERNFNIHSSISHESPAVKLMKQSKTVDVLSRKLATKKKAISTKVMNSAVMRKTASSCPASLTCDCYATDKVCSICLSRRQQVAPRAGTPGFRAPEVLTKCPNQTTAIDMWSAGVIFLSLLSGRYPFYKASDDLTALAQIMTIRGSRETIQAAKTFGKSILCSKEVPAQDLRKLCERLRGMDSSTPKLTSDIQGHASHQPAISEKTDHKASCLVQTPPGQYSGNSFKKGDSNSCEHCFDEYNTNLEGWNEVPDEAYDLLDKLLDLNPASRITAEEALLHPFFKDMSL
T1 sequence (Q9UBU7 whole entry partner): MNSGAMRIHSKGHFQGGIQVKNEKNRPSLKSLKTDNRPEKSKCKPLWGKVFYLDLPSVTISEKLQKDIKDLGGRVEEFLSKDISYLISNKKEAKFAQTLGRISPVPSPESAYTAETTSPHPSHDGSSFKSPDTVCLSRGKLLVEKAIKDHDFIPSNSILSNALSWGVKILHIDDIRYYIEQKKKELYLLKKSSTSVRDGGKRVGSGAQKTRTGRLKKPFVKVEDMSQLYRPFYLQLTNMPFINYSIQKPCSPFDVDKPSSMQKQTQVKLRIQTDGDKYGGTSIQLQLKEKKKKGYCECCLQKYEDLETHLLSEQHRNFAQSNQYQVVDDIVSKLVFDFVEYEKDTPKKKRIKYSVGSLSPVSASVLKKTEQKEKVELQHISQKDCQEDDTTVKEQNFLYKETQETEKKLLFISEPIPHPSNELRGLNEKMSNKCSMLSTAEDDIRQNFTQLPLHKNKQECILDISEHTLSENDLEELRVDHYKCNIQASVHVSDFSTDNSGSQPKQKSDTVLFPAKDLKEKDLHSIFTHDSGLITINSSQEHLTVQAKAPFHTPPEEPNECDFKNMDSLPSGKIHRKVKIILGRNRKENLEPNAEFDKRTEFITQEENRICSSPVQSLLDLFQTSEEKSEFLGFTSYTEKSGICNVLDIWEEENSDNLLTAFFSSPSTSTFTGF

SMILES	Ki [1]	Ki [2]
O=C1CCC(C(=O)N[C@H]2CC[C@H](Nc3cc(-c4c[nH]c5nccnc45)cc(Cl)n3)CC2)N1 (relative stereo) [Example 20, N-(trans 4-(6-chloro-4-(5H-pyrrolo[3,2-b]pyrazin-7-yl)pyridin-2-ylamino)cyclohexyl)-5-oxopyrrolidine-2-carboxamide]	< 0.01 µM	–
CCN1CCC(C(=O)N[C@H]2CC[C@H](Nc3cc(-c4c[nH]c5nccnc45)cc(Cl)n3)CC2)C1 (relative stereo) [Example 29, N-(trans-4-{[6-chloro-4-(5H-pyrrolo[2,3-b]pyrazin-7-yl)pyridin-2-yl]amino}cyclohexyl)-1-ethylpyrrolidine-3-carboxamide]	–	< 0.01 µM
C[C@@H](C(=O)N[C@H]1CC[C@H](Nc2cc(-c3c[nH]c4nccnc34)cc(Cl)n2)CC1)N(C)C (relative stereo) [Example 32, N-(trans-4-{[6-chloro-4-(5H-pyrrolo[2,3-b]pyrazin-7-yl)pyridin-2-yl]amino}cyclohexyl)-N^2,N^2-dimethylalaninamide]	–	< 0.01 µM
Clc1cc(-c2c[nH]c3nccnc23)cc(NC2CCCCC2)n1 [Example 1, 6-chloro-N-cyclohexyl-4-(5H-pyrrolo[3,2-b]pyrazin-7-yl)pyridin-2-amine]	< 0.01 µM	–
O[C@H]1CC[C@H](Nc2cc(-c3c[nH]c4nccnc34)cc(Cl)n2)CC1 [Example 2, Trans 4-(6-chloro-4-(5H-pyrrolo[3,2-b]pyrazin-7-yl)pyridin-2-ylamino)cyclohexanol]	< 0.01 µM	–
Clc1cc(-c2c[nH]c3nccnc23)cc(NC2CCCNC2)n1 (centres unmarked) [Example 3, 6-chloro-N-(piperidin-3-yl)-4-(5H-pyrrolo[2,3-b]pyrazin-7-yl)pyridin-2-amine]	< 0.01 µM	–
CCN1CCCC(Nc2cc(-c3c[nH]c4nccnc34)cc(Cl)n2)C1 (centres unmarked) [Example 4, 6-chloro-N-(1-ethylpiperidin-3-yl)-4-(5H-pyrrolo[2,3-b]pyrazin-7-yl)pyridin-2-amine]	< 0.01 µM	–
O=C(C1CC1)N1CCCC(Nc2cc(-c3c[nH]c4nccnc34)cc(Cl)n2)C1 (centres unmarked) [Example 5, (3-(6-chloro-4-(5H-pyrrolo[2,3-b]pyrazin-7-yl)pyridin-2-ylamino)piperidin-1-yl)(cyclopropyl)methanone]	< 0.01 µM	–
CS(=O)(=O)N1CCCC(Nc2cc(-c3c[nH]c4nccnc34)cc(Cl)n2)C1 (centres unmarked) [Example 6, 6-chloro-N-(1-(methylsulfonyl)piperidin-3-yl)-4-(5H-pyrrolo[2,3-b]pyrazin-7-yl)pyridin-2-amine]	< 0.01 µM	–
N[C@H]1CC[C@H](Nc2cc(-c3c[nH]c4nccnc34)cc(Cl)n2)CC1 [Example 7, Trans N^1-(6-chloro-4-(5H-pyrrolo[2,3-b]pyrazin-7-yl)pyridin-2-yl)cyclohexane-1,4-diamine]	< 0.01 µM	–
O=C(N[C@H]1CC[C@H](Nc2cc(-c3c[nH]c4nccnc34)cc(Cl)n2)CC1)C1CC1 [Example 8, N-(trans-4-(6-chloro-4-(5H-pyrrolo[2,3-b]pyrazin-7-yl)pyridin-2-ylamino)cyclohexyl)cyclopropanecarboxamide]	< 0.01 µM	–
CN(C)[C@H]1CC[C@H](Nc2cc(-c3c[nH]c4nccnc34)cc(Cl)n2)CC1 [Example 9, trans-N^1-(6-chloro-4-(5H-pyrrolo[2,3-b]pyrazin-7-yl)pyridin-2-yl)-N^4,N^4-dimethylcyclohexane-1,4-diamine]	< 0.01 µM	–
CS(=O)(=O)N1CCCC(CNc2cc(-c3c[nH]c4nccnc34)cc(Cl)n2)C1 (centres unmarked) [Example 10, 6-chloro-N-((1-(methylsulfonyl)piperidin-3-yl)methyl)-4-(5H-pyrrolo[2,3-b]pyrazin-7-yl)pyridin-2-amine]	< 0.01 µM	–
O=C(NC1CCCC(Nc2cc(-c3c[nH]c4nccnc34)cc(Cl)n2)C1)C1CC1 (centres unmarked) [Example 11, N-(3-(6-chloro-4-(5H-pyrrolo[2,3-b]pyrazin-7-yl)pyridin-2-ylamino)cyclohexyl)cyclopropanecarboxamide]	< 0.01 µM	–

From patent US8383624B2 (Abbott Laboratories, priority 2009, dated 2013)
